# Where two headings read alike, the source gives them in different places.
# Legend:
# [1] = test system: patient leukemic cells (AML samples); assay: cells; format: cell-based
# Experimental: (§1) After informed consent bone marrow and peripheral blood cells were obtained at diagnosis from 6 pediatric AML patients aged 0-18 years. The diagnosis is assessed by cytomorphology using FAB classification and immunophenotyping (Bennett J M et al., Br. J. Haematol. 33: 451-458, 1976). Mononuclear cells (MNC) are separated by Lymphoprep (Nycomed, Oslo, Norway) density gradients and cryopreserved in liquid nitrogen until use. Cryopreserved AML cells are thawed rapidly at 37° C., diluted in a 5× volume of normal calf serum (NCS) as described by Dokter W H et al., Leukemia 9: 425-432, 1995. The remaining pellet is T-cell depleted by sheep red blood cells and separated over lymphoprep density gradient. Remaining blast cell population contained more than 95% AML cells, hereafter referred to as AML cells and cultured in RPMI-1640 supplemented with penicillin/streptomycin and 10% fetal bovine serum.
# For the leukemic samples (10,000 cells/well) of the patients a 3-day cell culture is used. […] The optical density (OD) is linearly related to the number of viable cells. Control wells contain leukemic cells only with culture media without drugs, and blank wells contain culture media only. […] The LC50 value (drug concentration needed to kill 50% of the leukemic cells) is used to compare the differences between patients and/or various drug combinations. LC50 value equation: ([% leukemic cell survival >50%]−50)/([% leukemic cell survival >50%]−[% leukemic cell survival <50%])×(drug concentration when leukemic cell survival <50%−drug concentration when leukemic cell survival >50%)+(drug concentration when leukemic cell survival >50%).
# TF-1 cells [2] = assay: Apoptosis shown by PI DNA labeling (cell cycle analysis); format: cell-based; settings: dose-dependent, overnight culture, 5% in control wells
# Experimental: Cells are washed with PBS and resuspended in 75% ethanol in PBS and kept at 4° C. for at least 30 minutes. Prior to analysis, cells are washed with PBS, resuspended and incubated for 30 minutes in 1 mg/mL RNase A in PBS and thereafter incubated in staining solution containing 0.05 mg/mL propidium iodide (Sigma), 1 mM EDTA and 0.1% Triton-X-100. The suspension is then passed through a nylon mesh filter and analyzed on Becton Dickinson FACScan.
# [3] = test system: A431 epidermoid, Ls174T colon, HT-29 colon, PC-3 prostate carcinoma; settings: HT-29, PC-3 carcinomas; cited from earlier work
# TF-1 cells [4] = assay: Total cell kill assay (MTT), leukemic cell line; format: cell-based; settings: PTK787 in different concentrations
# Experimental: (§2) In vitro cellular drug resistance of leukemic HL-60 and TF-1 cells (10,000 cells/well) are assessed using a 2-day cell culture assay based on the principle that only viable cells are able to reduce 3-(4,5-dimethyl-2-thiazolyl)-2,5-diphenyl-tetrazolium bromide (MTT) (5 mg/mL in PBS added to each well for 4 hours) to a colored formazan product, measured spectrophotometrically at 520 nm. For the leukemic samples (10,000 cells/well) of the patients a 3-day cell culture is used. […] The optical density (OD) is linearly related to the number of viable cells. Control wells contain leukemic cells only with culture media without drugs, and blank wells contain culture media only. Percentage of cell survival is calculated at each drug concentration by the equation (mean OD treated wells/mean OD control wells)×100% after correction for the background found in the blank wells. The results are considered evaluable when the control wells still contain 70% or more leukemic cells (determined by MGG staining) after a 3-day culture period. The mean OD of the control wells after correction for the background at 3 days always exceeds 0.1 arbitrary units for valid results. The LC50 value (drug concentration needed to kill 50% of the leukemic cells) is used to compare the differences between patients and/or various drug combinations. […]
# HL-60 cells = assay: Total cell kill assay (MTT), leukemic cell line; format: cell-based; settings: PTK787 in different concentrations
# Experimental: as §2
# [5] = test system: primary AML cells of pediatric AML patients; assay: Patient leukemic cell survival counted by trypan blue exclusion; format: cell-based, human
# Experimental: as §1
# (§3) Before incubation with recombinant (rec) VEGF165 (Sigma, St. Louis, […].) and/or PTK787, AML cells and/or cell lines are serum starved for 4 hours in serum free medium (X-vivo 10, Biowhitaker, Brussels, Belgium). For proliferation experiments, cells are cultured in six-well plates (Corning-Costar Corp., Cambridge, Mass., USA), at a cell density of 1×10^5 cells per well in serum free medium (X-vivo-10) for 24 hours. Cells are treated (rec VEGF165 5-100 ng/mL) or untreated (media alone) and are cultured in the presence or absence of PTK787 (5-100 nM). After 24 hours viable cells (determined by trypan blue exclusion) are counted in triplicate using a hemocytometer. Each experiment is done in triplicate, and experiments with leukemic cell lines are repeated three times.
# Correlations are calculated using the Spearman rank correlation coefficient (rho). A paired sample non-parametric test (Wilcoxon Signed Ranks test) is used to analyze the paired viable cells (with or without VEGF, as well as with or without PTK787). A significant difference is defined as a P-value <0.05.
# TF-1 cells [6] = assay: Survival assay, viable cells counted by trypan blue exclusion after 24 hours; format: cell-based
# Experimental: The cell lines HL-60, TF-1, K562 and U937 are obtained from American Type Culture Collection (Manassas, Va., USA) and cultured in RPMI-1640 (Roswell Park Memorial Institute) supplemented with penicillin/streptomycin and 10% fetal bovine serum (FBS, Hyclone, Logan, Utah, USA) for U937, K562 and HL-60 cells and supplemented with GM-CSF 1 ng/mL for TF-1 cells.
# as §3
# K562 cells = assay: Total cell kill assay (MTT), leukemic cell line; format: cell-based; settings: PTK787 in different concentrations
# [7] = Homo sapiens, read-out: LC50 value, Patient No. 1, drug alone
# [8] = Homo sapiens, read-out: LC50 value, Patient No. 1, with PTK787 5 nM
# [9] = Homo sapiens, read-out: LC50 value, Patient No. 1, with PTK787 10 nM
# [10] = Homo sapiens, read-out: LC50 value, Patient No. 1, with PTK787 25 nM
# [11] = Homo sapiens, read-out: LC50 value, Patient No. 2, drug alone
# [12] = Homo sapiens, read-out: LC50 value, Patient No. 2, with PTK787 5 nM
# [13] = Homo sapiens, read-out: LC50 value, Patient No. 3, drug alone
# [14] = Homo sapiens, read-out: LC50 value, Patient No. 3, with PTK787 5 nM
# [15] = Homo sapiens, read-out: LC50 value, Patient No. 4, drug alone
# [16] = Homo sapiens, read-out: LC50 value, Patient No. 4, with PTK787 5 nM
# [17] = Homo sapiens, read-out: LC50 value, Patient No. 5, drug alone
# [18] = Homo sapiens, read-out: LC50 value, Patient No. 5, with PTK787 5 nM
# [19] = PTK787 (25 nM) plus exogenous VEGF165
Structure (SMILES),"CC50 [1, 7]","CC50 [1, 8]","CC50 [1, 9]","CC50 [1, 10]","CC50 [1, 11]","CC50 [1, 12]","CC50 [1, 13]","CC50 [1, 14]","CC50 [1, 15]","CC50 [1, 16]","CC50 [1, 17]","CC50 [1, 18]",also measured
"Nc1ccn([C@@H]2O[C@H](CO)[C@@H](O)[C@@H]2O)c(=O)n1 [Cytarabine, cytarabine]",400 µg/mL,260 µg/mL,250 µg/mL,35 µg/mL,5 µg/mL,0.6 µg/mL,4.7 µg/mL,0.23 µg/mL,1500 µg/mL,560 µg/mL,3 µg/mL,0.24 µg/mL,"CC50 ([1]; Homo sapiens, read-out: LC50 value, Patient No. 4, with PTK787 10 nM): 10 µg/mL; CC50 ([1]; Homo sapiens, read-out: LC50 value, Patient No. 4, with PTK787 25 nM): 0.2 µg/mL"
"O=C1c2c(O)ccc(O)c2C(=O)c2c(NCCNCCO)ccc(NCCNCCO)c21 [Mitoxantrone, mitoxantrone]",0.23 µg/mL,0.16 µg/mL,0.19 µg/mL,0.03 µg/mL,0.0175 µg/mL,6.1e-05 µg/mL,0.043 µg/mL,0.0004 µg/mL,0.054 µg/mL,2.3e-05 µg/mL,0.0186 µg/mL,6.1e-05 µg/mL,"CC50 ([1]; Homo sapiens, read-out: LC50 value, Patient No. 5, with PTK787 10 nM): 8e-07 µg/mL"
Clc1ccc(Nc2nnc(Cc3ccncc3)c3ccccc23)cc1 [PTK787],,,,,,,,,,,,,"apoptosis (fraction of apoptotic cells) (TF-1 cells [2]): up to 12%; growth of human carcinomas transplanted orthotopically into mice [3]: inhibits the growth; vessel density in the tumor tissues [3]: does reduce vessel density; leukemic cell survival (TF-1 cells [4]): up to 10%; leukemic cell survival (HL-60 cells): up to 1%; CC50 ([1]; Patient No. 1, 72 hours, read-out: LC50 value): > 25 nM; CC50 ([1]; Patient No. 2, 72 hours, read-out: LC50 value): 7.3 nM; CC50 ([1]; Patient No. 3, 72 hours, read-out: LC50 value): 5.8 nM; CC50 ([1]; Patient No. 4, 72 hours, read-out: LC50 value): 25 nM; CC50 ([1]; Patient No. 5, 72 hours, read-out: LC50 value): 7.7 nM; CC50 ([1]; Patient No. 6, 72 hours, read-out: LC50 value): 14.5 nM; decrease in cell survival, median [5, 19]: 15%; decrease in cell survival, range over patients [5, 19]: 0%-35.5%; decrease in cell survival, range over patients ([5]; PTK787 alone (25 nM)): 28.2%-75.4%; decrease in cell survival (cell death), median ([5]; PTK787 alone (25 nM), patient samples, p-value 0.043): 55.1%; TF-1 cell survival (TF-1 cells [6]; 25 nM PTK787, 24 hours): 21.9%; effect of PTK787 on cell survival on addition of rec VEGF (TF-1 cells [6]; 25 and 50 nM PTK787 plus rec VEGF, TF-1 cells): can be blocked; leukemic cell survival (K562 cells): no decrease at all"
